Tests used:
mPGES-1 = target: T1, mPGES-1 (Homo sapiens, UniProt O14684); test: Cell-free mPGES-1 activity assay (PGE2 biosynthesis); type: biochemical; details: 10 μM, percentage of control (100%), read-out: mPGES-1 residual activity at 10 μM (%)
T1 construct: endogenous in cells; host or cells: A549 cells stimulated with IL-1β; microsomal fraction
T1 sequence (O14684 1-152): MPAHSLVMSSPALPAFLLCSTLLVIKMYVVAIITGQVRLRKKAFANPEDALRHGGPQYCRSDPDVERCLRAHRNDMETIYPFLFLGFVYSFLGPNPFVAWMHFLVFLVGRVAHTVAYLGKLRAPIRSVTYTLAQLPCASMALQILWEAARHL
Source text: (Table 1). […] From the structural point of view, the biological affinities of compounds 3 and 7 (Figure 2A and C) could be positively affected by the 2-bromobenzoyl substituent able to accommodate in a deep binding pocket on the mPGES-1 surface. This moiety interacts by van der Waals contacts with amino acids of the cytoplasmic part and establishes π-stacking with Phe44ChainC and His53ChainC hydrogen bonds with Ser127, and a halogen bond between the bromine atom and the side chain of Aps49ChainC. Furthermore, the 3-phenylphenol and 2-aminobiphenyl moieties of 3 and 7 (Figure 2A and C), respectively, are able to establish a peculiar π-stacking with Tyr130ChainA and a hydrogen bond with Gln134ChainA. […]
mM glutathione, and 250 mM sucrose) and the protein concentration was defined. Potassium phosphate buffer (0.1 M, pH = 7.4) plus glutathione (2.5 mM) was added to dilute microsomes, which were then seeded in a 96-well plate. […]
preincubated for 15 min on ice. MK886 (10 µM) and MD-52 (1 µM) were used as reference drugs.
The reactions started by adding 20 µM of PGH2, and 1 min later, 100 µl of a solution containing FeCl3 (40 mM), citric acid (80 mM), and 11β-PGE 2 (10 µM) were added for stopping the conversion of PGH2. After the extraction of PGE2 and 11β-PGE 2 (internal stardard) by solid-phase extraction, […]

[1] = tested on: zymosan-induced peritonitis; test: Zymosan-induced peritonitis in mice; type: in vivo, mouse; details: 3 mg/kg i.p.
Method: Figure 5 Effect of compound 3 in zymosan-induced peritonitis in mice. Mice were randomly divided into different experimental groups: control group (Ctrl), model group (zymosan + vehicle compound 3), zymosan + compound 3 (i.p. injection 30 min after i.p. injection of zymosan) group, and zymosan + dexamethasone (i.p. injection 30 min after i.p. injection of zymosan) group. At (A) 4 and (B) 24 h after injection, peritoneal exudate from each mouse was recovered, and the total cell number was evaluated. Results are expressed as mean ± SD. For statistical analysis see SI.
Figure 6 Analysis of cytokine levels collected in the peritoneal exudate of mice from different experimental groups: (A, B) IL-1β, (C, D) IL-6, (E, F) PGE2, and (G, H) IL-10. Results (normalized to exudate levels) are expressed as mean ± SD. For statistical analysis see SI.
Induction of peritonitis in mice and Enzyme-Linked Immunosorbent Assay (ELISA)
To examine the anti-inflammatory action of compound 3, we next evaluated the biological activity of
compound 3 in a mouse model of zymosan-induced peritonitis, as as previously described. 13,14 26, 27
To this aim, mice were randomly divided into different experimental groups: control group (Ctrl),
model group (zymosan + vehicle compound 3), zymosan + compound 3 (0.1, 1, and 10 mg/kg), and
zymosan + dexamethasone (3 mg/kg) group. Animals received the selected compound or
dexamethasone intraperitoneally (i.p.) 30 min after i.p. injection of zymosan (500 mg/kg)26, 27. Ctrl
and model groups received an equal volume of vehicle (PBS or DMSO/saline 1:3, respectively).
Peritoneal exudates were collected at selected time points (4 and 24 h) by washing the cavity with 2
mL of PBS. Then cell number of lavage fluids was determined by TC10 automated cell counter (Bio-
Rad, Milan, Italy) using disposable slides. The remaining lavage fluids were centrifuged at 3000 rpm
for 20 min at 4 °C, and supernatants were frozen at −80 °C for further ELISA analysis according to
the manufacturer instructions (eBioscience Co., San Diego, CA, USA)10 23 of IL-1β, IL-6, PGE 2 and
IL-10 following the procedure previously described15-17 28-30. Dexamethasone and zymosan A were
purchased from Sigma-Aldrich (Milan, Italy). DMSO was purchased from Merck (Italy). Unless
otherwise stated, all the other reagents were purchased from Carlo Erba (Milan, Italy).
The data and statistical analysis in this study comply with the international recommendations on
experimental design and analysis in preclinical pharmacology18-2031-33. The results obtained were
expressed as the mean ± S.D. or as mean ± S.E.M., as reported in detail in the figure legends. IC 50
values were calculated by nonlinear regression using GraphPad Prism Version 8.0 software (San
Diego, CA) one site binding competition. Statistical evaluation of the data was performed by one-

| Structure (SMILES) | remaining activity at 10 µM (mPGES-1) [%] | also measured |
| --- | --- | --- |
| Nc1ccccc1-c1ccc(-c2nnc(NC(=O)c3cc(F)ccc3F)s2)cc1 [compound 8] | > 50 |  |
| Cc1ccoc1C(=O)Nc1nnc(-c2ccc(-c3cccc(O)c3)cc2)s1 [compound 1] | > 50 |  |
| Cc1cc(C(=O)Nc2nnc(-c3ccc(-c4cccc(O)c4)cc3)s2)cc(Cl)n1 [compound 2] | > 50 |  |
| C[C@@H]1C[C@H]2[C@@H]3CCC4=CC(=O)C=C[C@]4(C)[C@@]3(F)[C@@H](O)C[C@]2(C)[C@@]1(O)C(=O)CO [dexamethasone, reference compound] |  | IL-1β level in peritoneal exudate ([1]; 4 and 24 h): more prominent effect; IL-6 level in peritoneal exudate ([1]; 4 and 24 h): more prominent effect; IL-10 level in peritoneal exudate ([1]; 4 and 24 h): more prominent effect; PGE2 level in peritoneal exudate ([1]; 4 and 24 h): more prominent effect; leukocyte numbers in the peritoneal cavity ([1]; 4 h (P ≤ 0.005) and 24 h (P ≤ 0.01)): significantly reduced |
| O=C(Nc1nnc(-c2ccc(-c3cccc(O)c3)cc2)s1)c1cc(F)ccc1F [compound 4] | > 50 |  |
| Cc1ccoc1C(=O)Nc1nnc(-c2ccc(-c3ccccc3N)cc2)s1 [compound 5] | > 25 |  |

Reference: publication PMC9841589, “Identification of 2-Aminoacyl-1,3,4-thiadiazoles as Prostaglandin E2 and Leukotriene Biosynthesis Inhibitors” (ACS Medicinal Chemistry Letters, 2022)
